Data taken from patent US8097625B2, “Combination of sedative and a neurotransmitter modulator, and methods for improving sleep quality and treating depression” (priority 2003, dated 2012).

Experiments:
[1] = DREAMDD clinical study: tolerability and adverse events; format: in vivo, human; details: 8 weeks
Description: Safety was assessed by physical examinations, a standard 12-lead ECG, vital signs, clinical laboratory assessments and AE reporting.
Adverse Events (AEs): Subjects were queried in a non-leading manner, without specific prompting (e.g., “How are you feeling?”) to assess whether they are suffering from any adverse events.
Adverse Events: All adverse experiences were coded using the COSTART dictionary (Coding Symbols for a thesaurus of Adverse Event Terms; version 5.0, 1995). Treatment emergent adverse experiences was defined as 1) AEs that occurred or worsened (increased in severity and/or frequency) on or after the first dose of study medication, 2) AEs with a missing start data and a stop date on or after the first dose of study medication, or 3) AEs with both a missing start and stop date. Treatment emergent AEs was summarized by treatment and by COSTART body system and preferred term. AEs that occurred within 14 days after treatment discontinuation was considered treatment-emergent AEs.

[2] = test system: subjects with insomnia related to major depressive disorder; assay: DREAMDD clinical study: fluoxetine titration (20 mg to 40 mg at Visit 7); format: in vivo, human; details: for Subjects on Fluoxetine Hydrochloride 20 mg / Subjects on Fluoxetine Hydrochloride 40 mg: eszopiclone 3 mg group, ITT
Description: In addition, subjects were randomized at Visit 3 (end of baseline) to treatment with one of the following nightly (at bedtime): eszopiclone (3 mg) or matching placebo.
Sleep, Depression, and Productivity Questionnaires and Clinical Global Impression: The following questionnaires were administered as listed below. • Epworth Sleepiness Scale (ESS): ESS was completed by the subject at Visits 2-10. The ESS is a subjective assessment of the likelihood of falling asleep in various situations. • Insomnia Severity Index (ISI): ISI was completed by the subject at Visits 3, 5, 7, 9 and 10. The ISI is a subjective assessment of sleep quality, restedness/refreshness upon arising, daytime fatigue, attention/concentration and relationship and mood disturbances. • Work Limitations Questionnaire (WLQ): WLQ was completed by the subject at Visits 3, 5, 7, 9, and 10. The WLQ is a validated self-report instrument for measuring the degree to which chronic health problems interfere with ability to perform job roles, addressing the content of the job through a demand-level methodology. • Hamilton Depression-17: HAM-D-17 was administered via IVRS at screening and rated by a trained clinician at Visits 3, 7, 9, and 10. • SF-36: SF-36 was completed by the subject at Visits 3, 7, 9 and 10. The SF-36 represents multiple operational definitions of health, including function and dysfunction, distress and well-being, objective reports and subjective ratings, and both favorable and unfavorable self-evaluations of general health status. • Clinical Global Impression (CGI): CGI was completed by the investigator at Visits 3-10 The CGI is the investigator's subjective assessment of improvement in the subject's depressive symptoms. The response on the CGI at Visit 7 (Week 4 of double-blind treatment) was used by the investigator to assess the need for increasing the dose of fluoxetine to 40 mg daily (in the morning). […] Study Conduct
Visit 7 occurred 7 (±2) days after Visit 6. […] Double-blind dosing (at bedtime) continued nightly through Visit 9. • 1. Collected and reviewed the MEC. Recorded all changes in concurrent medications, including OTC and health and dietary supplements, and AEs that may have occurred between Visit 6 and Visit 7. • 2. […] Subjects completed the ESS, 1SI, WLQ, and SF-36 questionnaires prior to performing any other study related procedures. The questionnaires were reviewed for completeness by study staff. Any items left blank were returned to the subject for completion. • 4. A trained clinician administered the Hamilton-D-17 to assess depression symptoms. • 5. The investigator completed the Clinical Global Impression. […] If an increased dose of fluoxetine was required, the investigator dispensed the double-blind blister pack containing the 40 mg dose of fluoxetine. • 6. Dispensed the appropriate Visit 7 double-blind blister pack. […] Note: only one Visit 7 blister card was dispensed. • 7. Obtained vital signs (seated) and weight. • 8. Obtained blood and urine samples for clinical laboratory assessments including urinalysis, urine drug and alcohol screen, and a serum pregnancy tests on all women. • 9. Reviewed use of IVRS and the schedule for calling. Subjects call the IVRS the morning following this visit and on the morning of Visit 8 (prior to the visit). • 10. Issued MEC and instruct the subject on its use. • 11. Scheduled Visit 8 in 14 (±2) days. Visit 8 (Double-Blind Treatment Week 6)

In the case of `CN1CCN(C(=O)OC2c3nccnc3C(=O)N2c2ccc(Cl)cn2)CC1` (single isomer, unassigned; (+)) [Eszopiclone, (+) 6-(5-chloro-2-pyridinyl)-6,7-dihydro-7-oxo-5H-pyrrolo[3,4b]pyrazin-5-yl 4-methylpiperazine-1-carboxylate], the “unpleasant taste compared to placebo” value ([1]; 3 mg QHS + fluoxetine QAM) is reported as “more common”, the “drop-outs due to AEs versus placebo” value ([1]; 3 mg nightly + fluoxetine) is reported as “comparable” and the “tolerability of co-administration with fluoxetine” value ([1]; 3 mg nightly + fluoxetine, MDD and insomnia) is reported as “well-tolerated”. The “Subjects on Fluoxetine Hydrochloride 20 mg” value ([2]; Visit 7 (Week 4)) was 125 (55.8%) n (%), the “Subjects on Fluoxetine Hydrochloride 40 mg” value ([2]; Visit 7 (Week 4)) was 99 (44.2%) n (%) and the “Subjects on Fluoxetine Hydrochloride 20 mg” value ([2]; Visit 8 (Week 6)) was 115 (54.0%) n (%). The “Subjects on Fluoxetine Hydrochloride 40 mg” value ([2]; Visit 8 (Week 6)) was 98 (46.0%) n (%), the “Subjects on Fluoxetine Hydrochloride 20 mg” value ([2]; Visit 9 (Week 8)) was 103 (52.8%) n (%) and the “Subjects on Fluoxetine Hydrochloride 40 mg” value ([2]; Visit 9 (Week 8)) was 92 (47.2%) n (%). For the same molecule, the “antidepressant dose escalation to higher dose of fluoxetine” value ([2]; co-administration with fluoxetine vs placebo) was “less patients in this study required antidepressant dose escalation” and the Fluoxetine dose increases ([2]; p<0.05 vs placebo, 3 mg nightly + fluoxetine) was 44%.
